Here are results for 16 molecules from PubChem BioAssay (NCI).

Test systems include OVCAR-5 ovarian; SK-MEL-5 melanoma; T-47D breast; NCI-H460 lung; OVCAR-4 ovarian; HOP-62 NSCLC; SF-295 CNS; HCC-2998 colon; MOLT-4 leukemia; MDA-MB-231 breast.
Experiment in all cases: inhibition of tumour cell growth, NCI panel, 48 h

Several values for one entry are separate records, joined by “and”; a condition that tells them apart may be missing. Equal values may be shown once.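 Results reflect a 48-hour exposure of cells in 96-well plates to compound at five concentrations. Here, GI50 denotes the concentration required for 50% inhibition of growth. Definition used: TGI = concentration required for complete inhibition of growth.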

Turning to `O=c1c2cc(I)ccc2nc(-c2cccs2)n1/N=C/c1ccccc1`, the TGI in the assay on OVCAR-5 ovarian, in the assay on SK-MEL-5 melanoma, with T-47D breast, with NCI-H460 lung, in the assay with OVCAR-4 ovarian and in the assay on HOP-62 NSCLC was over 100 µM each time. Moreover, the TGI in the assay with SF-295 CNS and in the assay on HCC-2998 colon was over 100 µM each time.
Take `COc1cc(C=O)cc(O)c1O`: the TGI in the assay on NCI-H460 lung, with HOP-62 NSCLC, in the assay on SF-295 CNS, with MOLT-4 leukemia and in the assay with HCC-2998 colon was over 100 µM throughout.
Regarding `CN(CCCn1ccnc1[N+](=O)[O-])CCCn1ccnc1[N+](=O)[O-]`, the TGI in the assay with OVCAR-5 ovarian, in the assay with SK-MEL-5 melanoma, in the assay on T-47D breast, in the assay on NCI-H460 lung, in the assay on OVCAR-4 ovarian and in the assay on MDA-MB-231 breast was over 100 µM throughout. Besides, the TGI with HOP-62 NSCLC, in the assay with SF-295 CNS and in the assay on MOLT-4 leukemia was over 100 µM each time.
Regarding `O=c1c([OH2+])c(-c2ccc(O)cc2[O-])oc2cc(O)cc([O-])c12.O=c1c([OH2+])c(-c2ccc(O)cc2[O-])oc2cc(O)cc([O-])c12.[Ti+4]`, the TGI in the assay with OVCAR-5 ovarian, with SK-MEL-5 melanoma, in the assay with NCI-H460 lung, in the assay with OVCAR-4 ovarian, in the assay with HOP-62 NSCLC and in the assay with SF-295 CNS was over 100 µM throughout. The molecule also came in with a TGI with MOLT-4 leukemia of over 100 µM. The GI50 with MOLT-4 leukemia was over 100 µM.
Turning to `O=c1ccnc2ccc3n[nH][nH]c3c12`, the TGI in the assay with OVCAR-5 ovarian, in the assay with SK-MEL-5 melanoma, in the assay with NCI-H460 lung, in the assay on OVCAR-4 ovarian, in the assay on HOP-62 NSCLC and in the assay on SF-295 CNS was over 100 µM throughout. Moreover, the TGI in the assay with MOLT-4 leukemia and in the assay with HCC-2998 colon was over 100 µM in each case.
In the case of `CCOC(=O)C(=O)NC12CC3CC(CC(C3)C1)C2`, the TGI with OVCAR-5 ovarian, in the assay with SK-MEL-5 melanoma, in the assay on NCI-H460 lung, with OVCAR-4 ovarian, in the assay on HOP-62 NSCLC and with SF-295 CNS was over 100 µM in each case. The molecule further gave a TGI in the assay with HCC-2998 colon of over 100 µM.
For the molecule `O=C1CCCc2ccc3c(c21)CC1(Cc2ccccc2C1)C3`, the TGI in the assay on OVCAR-5 ovarian was over 100 µM; in the assay with SK-MEL-5 melanoma, 33.4 µM; with T-47D breast it was over 100 µM; with OVCAR-4 ovarian, 98.8 µM; with MDA-MB-231 breast, over 100 µM; with HOP-62 NSCLC, over 100 µM. Besides, the TGI in the assay with SF-295 CNS and with HCC-2998 colon was over 100 µM throughout.
Take `CC1C(c2ccccc2O)c2cc3c(cc2OC1N1CCOCC1)OCO3` (stereo unspecified): the TGI with OVCAR-5 ovarian is over 100 µM; with SK-MEL-5 melanoma, 62.3 µM; in the assay on T-47D breast it was over 100 µM; with NCI-H460 lung it was 49.2 µM; in the assay on MDA-MB-231 breast, 73.9 µM; in the assay on HOP-62 NSCLC it was 35.8 µM. Further, the TGI in the assay with SF-295 CNS was determined as 62 µM; in the assay with MOLT-4 leukemia it was 83.7 µM; with HCC-2998 colon, 64.3 µM.
As for `COc1cccc2c1C(=O)c1c(O)c3c(c(O)c1C2=O)C[C@@](O)(C(=O)CO)CC3OC1CC(NCCCC(OC(C)=O)OC(C)=O)C(O)C(C)O1` (stereo partly specified), the GI50 in the assay with OVCAR-5 ovarian is 0.000347 µM; in the assay on SK-MEL-5 melanoma, under 0.0001 µM; in the assay on OVCAR-4 ovarian, under 0.0001 µM; in the assay with SF-295 CNS it was under 0.0001 µM; in the assay with MOLT-4 leukemia it was 0.000123 µM; in the assay on HCC-2998 colon, 0.000324 µM. For the same molecule, the TGI in the assay on OVCAR-5 ovarian is 0.701 µM; in the assay with SK-MEL-5 melanoma, 0.00028 µM; with HOP-62 NSCLC it was 0.00461 µM; in the assay with SF-295 CNS it was 0.000645 µM; in the assay on HCC-2998 colon, 0.00593 µM and 0.00191 µM.
As to `CN(C(=O)c1ccco1)C(=S)N1CCN(c2ccccn2)CC1`, the TGI in the assay with OVCAR-5 ovarian, in the assay on SK-MEL-5 melanoma, with NCI-H460 lung, in the assay on OVCAR-4 ovarian, in the assay with HOP-62 NSCLC and in the assay on SF-295 CNS was over 100 µM in each case. This molecule had a TGI in the assay on MOLT-4 leukemia of over 100 µM.
Take `c1ccc([P+](c2ccccc2)(c2ccccc2)C2c3ccccc3-c3ccccc32)cc1`: the TGI in the assay with OVCAR-5 ovarian turned out to be 42 µM; in the assay on SK-MEL-5 melanoma, 3.82 µM; with T-47D breast it was 12.5 µM; in the assay on NCI-H460 lung, 10.2 µM; with MDA-MB-231 breast, 6.84 µM; in the assay on HOP-62 NSCLC, 4.7 µM. In addition, the TGI in the assay on SF-295 CNS worked out at 5.35 µM; in the assay with MOLT-4 leukemia it was 7.12 µM; with HCC-2998 colon, 9.62 µM.
On to `NC(Cc1ccc(B(O)O)cc1)C(=O)NC(CO)CO` (stereo unspecified), for which the TGI with OVCAR-5 ovarian, with SK-MEL-5 melanoma, in the assay with NCI-H460 lung, in the assay on OVCAR-4 ovarian, in the assay on MDA-MB-231 breast and in the assay with HOP-62 NSCLC was over 100 µM throughout. The TGI in the assay with SF-295 CNS, with MOLT-4 leukemia and with HCC-2998 colon was over 100 µM each time.
Turning to `CN(C)c1ccc(/C=C/c2cc(-c3ccccc3)[n+](C)n2-c2ccccc2)cc1`, the TGI with OVCAR-5 ovarian is 30.8 µM; with SK-MEL-5 melanoma, 0.522 µM; in the assay on NCI-H460 lung, over 100 µM; with OVCAR-4 ovarian it was over 69.2 µM; with MDA-MB-231 breast, 17.2 µM; in the assay on HOP-62 NSCLC it was 12.4 µM. In addition, the TGI in the assay with SF-295 CNS is 16.2 µM; with MOLT-4 leukemia, 3.41 µM; in the assay on HCC-2998 colon, 56.4 µM.
Regarding `CCCN(CCC)C1=Nc2ccccc2-n2cnnc2C1`, the TGI in the assay on OVCAR-5 ovarian, with SK-MEL-5 melanoma, with NCI-H460 lung, in the assay on OVCAR-4 ovarian, in the assay with HOP-62 NSCLC and in the assay on SF-295 CNS was over 100 µM in each case. Moreover, the TGI in the assay on MOLT-4 leukemia is over 100 µM.
Take `[N-]=[N+]=CC(=O)CCC(=O)N(c1ccccc1)c1ccccc1`: the TGI in the assay with OVCAR-5 ovarian, in the assay on SK-MEL-5 melanoma, in the assay with T-47D breast, in the assay with NCI-H460 lung, with MDA-MB-231 breast and with HOP-62 NSCLC was over 10 µM each time. Besides, the TGI in the assay on SF-295 CNS and with MOLT-4 leukemia was over 10 µM each time.
Consider `Cc1csc(NNC(=O)Nc2ccccc2)n1`, for which the TGI with OVCAR-5 ovarian, in the assay on SK-MEL-5 melanoma, with T-47D breast, with NCI-H460 lung, in the assay on OVCAR-4 ovarian and in the assay with MDA-MB-231 breast was over 100 µM each time. The TGI in the assay on HOP-62 NSCLC, with SF-295 CNS and in the assay on HCC-2998 colon was over 100 µM each time.
